Reference: patent publication US20130085105A1, “Transdermal Administration Of Peptides” (The Provost, Fellows and Scholars of the College of Holy …, priority 2010, published 2013)

How the values were obtained:
[1] = pH of donor vehicles containing Compound B oleate; type: physicochemical
Experimental: The donor vehicles described herein were prepared at or close to neutral pH; this pH is close to the pH at which the fatty acid salts were synthesized and isolated. Because this work focused upon fatty acid peptide salts, a neutral pH was preferred to maintain molecular pairing. As described by Fini et al. (Int. J. Pharm., 187:163-173, 1999), adverse pH conditions can cause salt/ion pairs to dissociate, resulting in the loss of many properties beneficial to increasing transdermal flux, for example lipophilicity. […] Significant dissociation would have led to distortion of the flux profiles due to the formation of free oleic acid, in itself a potent penetration enhancer.

[2] = In vitro transdermal permeation, diffusion cell, pig epidermis; type: in vitro ADME, domestic pigs
Experimental: The viable epidermal layer was removed from the flanks of freshly sacrificed four month-old female domestic pigs. The flank area of each animal was carefully shaved and the upper 200 μm of skin (Meyer, W., et al., Curr. Prob. Dermatol., 7: 39-52, 1978; de Jalón, et al., J. Control. Rel., 75:191-197, 2001) was harvested using an electric dermatome (Robbins Instruments, Chatham, N.J., U.S.A.). Pigskin epidermal specimens were frozen at −18° C. between layers of PBS-soaked tissue paper enclosed in aluminum foil for up to two weeks prior to use in in vitro permeation studies.
A custom made finite dosing diffusion cell (AGB Scientific, Dublin, Ireland, FIG. 1) based upon and modified from the Keshary-Chien type diffusion cell was used for in vitro permeation studies.
Three to five diffusion cells were used in each permeation experiment and monitoring was performed over a 48 hour period. The cells were linked in series to a thermostatically controlled circulation bath set at 35° C. to mimic human skin surface temperature. Each cell was placed on a stir-plate set at a defined stirring rate of 1,000 rpm. The surface area for permeation provided by each cell was 3.14 cm^2.
Data collected from each permeation study included:
1) the average maximum flux obtained in 48 hours (Jmax),
2) the total absorption characterized as the total weight of peptide delivered transdermally into the receiver compartment over a 48 hour period,
3) the lag time to detectable flux which was equivalent to the latest sampling time at which no peptide was detectable by HPLC analysis of the receiver solution, and
4) an equivalent 48-hour steady state flux was determined by obtaining the slope of the best-fit line for a plot of cumulative flux per unit area versus time (described by McDaid, D. M. et al., Int. J. Pharm., 133:71-83, 1996).
Fresh hairless mouse skin samples or fresh or freshly thawed pig skin samples were mounted onto the diffusion cell with the SC topmost and in contact with the donor system. A rubber or plastic ring was placed on top of the skin sample to secure it in position. The combination of the diffusion cell top, the skin and the rubber ring was securely fastened together by means of a threaded cap. A recorded volume of receiver solution was added to the receiver compartment and maintained at 35° C. The receiver solution was 60/40 (v/v) PBS/propylene glycol (pH 7.1). The propylene glycol fraction was used to increase the solubility of the somatostatin-fatty acid salts. Previous work reported by Morgan et al. (J. Pharm. Sci., 87:1213-1218, 1998) has shown that a 50/50 water/propylene glycol receptor solution had no detrimental effect on the barrier integrity of both hairless mouse and porcine skin.
The receiver solution was allowed to equilibrate at 35° C. for 30 minutes. The experiment was initiated by the application of 1 ml of donor solution containing approximately 5 mg free base peptide in DMSO to the skin surface followed by sealing of the donor compartment with Parafilm®. A narrow-bore hypodermic needle was used to withdraw 1 ml samples from the receiver compartment via the sampling port; at each sampling time, an equal volume of drug-free receiver solution was immediately added back to the receiver compartment. Samples were analyzed by HPLC.
HPLC determination of peptide content in the receiver solution along with the known surface area of skin used (3.14 cm^2) allowed for calculation of transdermal flux (in units of μg/cm^2/hr) for each time point. Panels 1 and 2 of FIG. 2 show flux profiles obtained for the oleate salts of Compound A and Compound B in DMSO which far exceeded the flux profiles for the myristate, octanoate, decanoate, linoleate, nonanote, acetate and laurate salts of Compound A as well as the acetate salt of Compound B in DMSO. […]

[3] = Solubility of somatostatin fatty-acid salts; type: physicochemical; conditions: 24 hours
Experimental: The solubilities of Compound A and Compound B oleate were determined in deionized water, phosphate-buffered saline (PBS; pH 7.4) and n-octanol. Analysis was carried out by placing an excess of each salt with 1 ml of the selected solvent into four 4 ml sealed HPLC vials. The samples were allowed to equilibrate at 37° C. for 24 hours with shaking. Each of the four dispersions was then filtered through a 0.2 μm nylon membrane (Pall Gelman, Ann Arbor, Mich., U.S.A.). Prior to HPLC analysis, the n-octanol samples were diluted 1:100 with methanol and the PBS and deionized water samples were diluted 1:10 in de-ionized water. Table 7 lists the solubilities of Compound A and Compound B oleate salts in deionized water, PBS and n-octanol.

[4] = pig epidermis overlaid with microporous polypropylene membrane, EtOH/Water/Cineole + 5% (w/v) HPC, 5 mg/ml
[5] = pig epidermis, donor 55% EtOH 40% Water 5% Cineole, 5 mg/ml free base peptide
[6] = pig epidermis, donor 80% Prop. Glycol 15% Decanol 5% Cineole
[7] = pig epidermis, donor 80% Prop. Glycol 15% Dodecanol 5% Cineole

**Q.** With “[4-(2-hydroxyethyl)]-1-piperazinylacetyl-D-Phe-c(Cys-Tyr-D-Trp-Lys-Abu-Cys)-Thr-NH2 [Compound B di-oleate]” as the substance, how does the pH ([1]; approx. 5 mg/ml in 55% EtOH 40% H2O 5% 1,8-Cineole) read?
**A.** Its pH is 6.89.

**Q.** What about the pH ([1]; approx. 5 mg/ml in 80% Prop. Glycol 15% Decanol 5% 1,8-Cineole) of the same substance?
**A.** Its pH is 7.08.

**Q.** What about the pH ([1]; approx. 5 mg/ml in 80% Prop. Glycol 15% Dodecanol 5% 1,8-Cineole) of the same substance?
**A.** Its pH is 7.56.

**Q.** And the Jmax [2, 4]?
**A.** Its Jmax is 4.200 μg/cm^2/hr.

**Q.** What about the Jss [2, 4] of the same substance?
**A.** Its Jss is 0.309 μg/cm^2/hr.

**Q.** What about the “Lag Time” value [2, 4] of the same substance?
**A.** Its value is 1 h.

**Q.** And the “Total Absorption” value [2, 4]?
**A.** The value was 56.89 μg/48 hr.

**Q.** What about the Jmax [2, 5] of the same substance?
**A.** The Jmax was 9.224 μg/cm^2/hr.

**Q.** What about the Jss [2, 5] of the same substance?
**A.** Its Jss is 5.552 μg/cm^2/hr.

**Q.** And the “Lag Time” value [2, 5]?
**A.** Its value is 1 h.

**Q.** What about the “Total Absorption” value [2, 5] of the same substance?
**A.** Its value is 814.44 μg/48 hr.

**Q.** And the Jmax [2, 6]?
**A.** The Jmax was 6.085 μg/cm^2/hr.

**Q.** And the Jss [2, 6]?
**A.** Its Jss is 4.539 μg/cm^2/hr.

**Q.** And the “Lag Time” value [2, 6]?
**A.** The value was 3.5 h.

**Q.** What about the “Total Absorption” value [2, 6] of the same substance?
**A.** Its value is 917.18 μg/48 hr.

**Q.** What about the Jmax [2, 7] of the same substance?
**A.** Its Jmax is 3.983 μg/cm^2/hr.

**Q.** What about the Jss [2, 7] of the same substance?
**A.** Its Jss is 3.335 μg/cm^2/hr.

**Q.** And the “Lag Time” value [2, 7]?
**A.** The value was 5 h.

**Q.** What about the “Total Absorption” value [2, 7] of the same substance?
**A.** Its value is 600.35 μg/48 hr.

**Q.** What about the “Solubility PBS” value ([3]; PBS pH 7.4, 37° C.) of the same substance?
**A.** Its value is 1302 µg/mL.

**Q.** And the “Solubility DI H2O” value ([3]; deionized water, 37° C.)?
**A.** The value was 50 µg/mL.

**Q.** And the “Solubility n-Octanol” value ([3]; n-octanol, 37° C.)?
**A.** The value was 136900 µg/mL.
